In patent publication US11352340B2, “Pyridine and pyridimine compounds as PI3K-gamma inhibitors” (Incyte Corporation, priority 2016, dated 2022) one finds IC50 data, which are given here for 24 compounds.

pIC50: −log10 of the molar value. Structures can show the parent of a compound that is named as a salt. Where two headings read alike, the source gives them in different places.

In assay [1] the test system is Phosphorylated Ribosomal Protein S6 (RPS6) in THP-1 cells. The assay is described as follows: THP-1 RPS6 ELISA Assay. The class given is cell-based, Human. The settings on record: MCP-1 stimulated, phospho-RPS6 ELISA, read-out: THP p-RPS6 ELISA IC50. Summed up: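 Serum-starved THP-1 cells (2×10^5/well, RPMI) preincubated with compound 2 h at 37° C, then stimulated with 10 nM MCP-1 for 15 min. Lysates assayed by phospho-RPS6 ELISA, absorbance 450 nm (540 nm correction); IC50 from percent inhibition versus log concentration.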

Assay [2] has as its target PI3Kγ (p110γ) Recombinant Human Protein (Homo sapiens (Human), UniProt P48736). Nature of the assay: PI3K-γ Scintillation Proximity Assay. The class given is biochemical. The settings on record: read-out: PI3K-gamma SPA IC50. In a few lines: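 Recombinant human p110γ (13 nM) with 20 μM PIP2 and 2 μM ATP plus 0.5 μCi [γ-33P]ATP in 20 mM MOPS pH 6.7, 10 mM MgCl2, 5 mM DTT, 0.03% CHAPS, 2% DMSO, 120 min at room temperature. Product captured on WGA SPA beads and counted; IC50 fitted from % of solvent control versus log concentration.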

Assay [3] deals with PI3Kδ (p110δ/p85α) Recombinant Human Protein (Homo sapiens (Human), UniProt O00329). The assay is described as follows: PI3Kδ Scintillation Proximity Assay. The class given is biochemical. Conditions: read-out: PI3K-delta SPA IC50. In a few lines:
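Recombinant human p110δ/p85α (3.4 nM) phosphorylates 20 μM di-octanoyl PIP2 using 2 μM ATP spiked with [γ-33P]ATP, 120 min, room temperature, pH 6.7, 2% DMSO. Product measured by scintillation proximity; IC50 from dose-response fit.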
Background: In a scintillation proximity assay essentially only radioactivity close to the scintillant gives light.

PI3Kγ (p110γ) Recombinant Human Protein, sequence (P48736 whole entry): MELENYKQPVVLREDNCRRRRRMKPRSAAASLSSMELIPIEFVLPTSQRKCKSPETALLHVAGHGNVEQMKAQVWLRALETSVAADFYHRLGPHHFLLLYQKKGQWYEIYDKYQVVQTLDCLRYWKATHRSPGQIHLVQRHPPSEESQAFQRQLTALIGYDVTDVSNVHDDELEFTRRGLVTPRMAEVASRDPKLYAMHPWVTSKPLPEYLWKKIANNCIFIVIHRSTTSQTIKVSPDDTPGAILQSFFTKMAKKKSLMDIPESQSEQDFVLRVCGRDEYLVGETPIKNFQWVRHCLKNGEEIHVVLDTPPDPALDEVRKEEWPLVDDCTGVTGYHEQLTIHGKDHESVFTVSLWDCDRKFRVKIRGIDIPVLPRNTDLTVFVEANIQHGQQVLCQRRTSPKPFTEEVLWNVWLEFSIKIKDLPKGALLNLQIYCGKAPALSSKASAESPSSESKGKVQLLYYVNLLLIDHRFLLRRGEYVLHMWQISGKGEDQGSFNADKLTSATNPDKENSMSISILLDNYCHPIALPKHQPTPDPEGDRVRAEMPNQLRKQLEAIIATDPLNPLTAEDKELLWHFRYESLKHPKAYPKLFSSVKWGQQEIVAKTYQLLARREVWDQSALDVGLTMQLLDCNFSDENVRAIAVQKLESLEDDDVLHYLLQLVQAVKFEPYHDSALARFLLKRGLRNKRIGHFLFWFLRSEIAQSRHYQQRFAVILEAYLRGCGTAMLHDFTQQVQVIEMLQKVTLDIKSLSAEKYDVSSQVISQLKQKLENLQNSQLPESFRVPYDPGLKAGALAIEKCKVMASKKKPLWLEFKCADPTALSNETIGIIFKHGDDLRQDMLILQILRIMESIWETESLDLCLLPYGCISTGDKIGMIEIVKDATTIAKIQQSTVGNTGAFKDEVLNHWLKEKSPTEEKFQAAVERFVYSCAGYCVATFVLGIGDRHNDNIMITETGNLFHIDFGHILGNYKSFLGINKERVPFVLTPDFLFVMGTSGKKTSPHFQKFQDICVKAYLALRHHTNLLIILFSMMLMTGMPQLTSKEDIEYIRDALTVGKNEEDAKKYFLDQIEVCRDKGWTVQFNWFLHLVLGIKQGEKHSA
PI3Kδ (p110δ/p85α) Recombinant Human Protein, sequence (O00329 whole entry): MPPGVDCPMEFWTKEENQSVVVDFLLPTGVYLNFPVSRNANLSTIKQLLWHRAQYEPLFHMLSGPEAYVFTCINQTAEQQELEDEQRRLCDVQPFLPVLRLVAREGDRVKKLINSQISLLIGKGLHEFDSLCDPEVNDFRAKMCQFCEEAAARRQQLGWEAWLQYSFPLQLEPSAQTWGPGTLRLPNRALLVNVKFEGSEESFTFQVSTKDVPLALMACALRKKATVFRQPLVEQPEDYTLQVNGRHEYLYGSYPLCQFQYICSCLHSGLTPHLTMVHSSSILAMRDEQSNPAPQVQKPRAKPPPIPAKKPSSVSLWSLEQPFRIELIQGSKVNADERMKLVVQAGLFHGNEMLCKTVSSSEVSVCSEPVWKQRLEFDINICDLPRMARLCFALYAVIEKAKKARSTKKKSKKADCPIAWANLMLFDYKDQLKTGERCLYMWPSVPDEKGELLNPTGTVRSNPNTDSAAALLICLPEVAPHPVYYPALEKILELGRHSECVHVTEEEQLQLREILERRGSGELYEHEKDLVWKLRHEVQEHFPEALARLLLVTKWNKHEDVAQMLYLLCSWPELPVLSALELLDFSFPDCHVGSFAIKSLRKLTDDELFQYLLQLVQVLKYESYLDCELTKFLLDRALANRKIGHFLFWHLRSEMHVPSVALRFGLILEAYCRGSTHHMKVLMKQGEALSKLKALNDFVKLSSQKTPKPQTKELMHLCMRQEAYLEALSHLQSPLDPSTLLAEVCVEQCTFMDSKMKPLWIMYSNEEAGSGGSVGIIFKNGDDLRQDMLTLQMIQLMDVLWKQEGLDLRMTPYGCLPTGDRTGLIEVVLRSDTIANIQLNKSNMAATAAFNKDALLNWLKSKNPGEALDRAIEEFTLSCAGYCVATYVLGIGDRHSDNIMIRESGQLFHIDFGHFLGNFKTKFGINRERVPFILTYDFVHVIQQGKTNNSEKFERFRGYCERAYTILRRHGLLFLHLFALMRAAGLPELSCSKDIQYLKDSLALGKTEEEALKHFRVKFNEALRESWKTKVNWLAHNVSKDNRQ
PI3Kδ (p110δ/p85α) Recombinant Human Protein, sequence (P27986 whole entry partner): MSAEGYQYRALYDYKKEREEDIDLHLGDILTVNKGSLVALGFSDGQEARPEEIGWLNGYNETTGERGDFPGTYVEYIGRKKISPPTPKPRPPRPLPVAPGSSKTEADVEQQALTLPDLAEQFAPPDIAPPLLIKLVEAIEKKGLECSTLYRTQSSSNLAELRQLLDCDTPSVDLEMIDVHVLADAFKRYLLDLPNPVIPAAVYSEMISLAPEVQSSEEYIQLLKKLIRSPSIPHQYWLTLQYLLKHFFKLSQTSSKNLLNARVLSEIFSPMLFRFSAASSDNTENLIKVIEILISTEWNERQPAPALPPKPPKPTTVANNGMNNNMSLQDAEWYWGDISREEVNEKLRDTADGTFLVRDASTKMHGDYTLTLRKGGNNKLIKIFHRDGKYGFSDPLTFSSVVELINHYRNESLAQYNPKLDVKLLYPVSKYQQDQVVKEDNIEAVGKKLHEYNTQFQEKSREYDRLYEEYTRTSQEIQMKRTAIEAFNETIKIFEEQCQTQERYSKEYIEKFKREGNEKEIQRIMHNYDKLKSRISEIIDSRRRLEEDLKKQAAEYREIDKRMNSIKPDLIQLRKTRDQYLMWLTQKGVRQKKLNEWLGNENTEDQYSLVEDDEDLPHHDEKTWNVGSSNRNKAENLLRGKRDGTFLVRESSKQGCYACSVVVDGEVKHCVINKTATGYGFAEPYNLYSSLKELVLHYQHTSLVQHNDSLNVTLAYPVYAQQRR

In the case of `COc1cncc(-c2ccnc(-c3nnc(-c4ccccc4)[nH]3)c2)c1` [Example 71, 5-Methoxy-2′-(5-phenyl-4H-1,2,4-triazol-3-yl)-3,4′-bipyridine], the pIC50 in assay [1] (Homo sapiens) was less than 5.30; in assay [2], no less than 6.30; in assay [3], no less than 6.30.
Take `Cc1[nH]c(-c2cc(-c3cncc(N4CCOCC4)c3)ccn2)nc1CO` [Example 122, [5-Methyl-2-(5-morpholin-4-yl-3,4′-bipyridin-2′-yl)-1H-imidazol-4-yl]methanol]: the pIC50 in assay [1] (Homo sapiens) was 5.30 to 6.00; in assay [2], no less than 6.30; in assay [3] it was no less than 6.30.
On to `Cc1nc(-c2cc(-c3cncc(N4CC[C@H](O)C4)c3)ccn2)[nH]c1C` [Example 232, (3S)-1-[2′-(4,5-Dimethyl-1H-imidazol-2-yl)-3,4′-bipyridin-5-yl]pyrrolidin-3-ol], for which the pIC50 was 6.00 to 6.52 in assay [1] (Homo sapiens), no less than 7.00 in assay [2] and no less than 6.30 in assay [3].
With `COc1cncc(-c2ccnc(-c3ncc(-c4ccc(S(=O)(=O)N(C)C)cc4)[nH]3)c2)c1` [Example 83, 4-(2-(5-Methoxy-3,4′-bipyridin-2′-yl)-1H-imidazol-5-yl)-N,N-dimethylbenzenesulfonamide trifluoroacetate salt], the pIC50 was less than 5.30 in assay [1] (Homo sapiens), no less than 7.30 in assay [2] and no less than 7.30 in assay [3].
Regarding `Cc1[nH]c(-c2cc(-c3cncc(S(C)(=O)=O)c3)ccn2)nc1C(=O)N[C@H]1CCOC1` [Example 255, 5-Methyl-2-[5-(methylsulfonyl)-3,4′-bipyridin-2′-yl]-N-[(3,S)-tetrahydrofuran-3-yl]-lH-imidazole-4-carboxamide trifluoroacetate salt], the values for the pIC50 in assay [1], in assay [2] and in assay [3] were 6.00 to 6.52, no less than 7.30 and no less than 7.30, respectively.
For the compound `Cc1nc(-c2cc(-c3cncc(C(=O)NCC4CC4)c3)ccn2)[nH]c1C` [Example 202, N-(Cyclopropylmethyl)-2′-(4,5-dimethyl-1H-imidazol-2-yl)-3,4′-bipyridine-5-carboxamide trifluoroacetate salt], the pIC50 in assay [1] (Homo sapiens) was 6.00 to 6.52; in assay [2], no less than 7.00; in assay [3] it was no less than 7.00.
Consider `c1ccc(Cn2cc(-c3ccnc(-c4ncc(-c5ccccc5)[nH]4)c3)cn2)cc1` [Example 5, 4-(1-Benzyl-1H-pyrazol-4-yl)-2-(5-phenyl-1H-imidazol-2-yl)pyridine trifluoroacetate salt], for which the pIC50 in assay [1] (Homo sapiens) was 5.30 to 6.00; in assay [2], no less than 7.00; in assay [3], no less than 7.30.
Turning to `Cc1nc(-c2cc(-c3cncc(C(=O)N(C)CC#N)c3)ccn2)[nH]c1C` [Example 203, N-(Cyanomethyl)-2′-(4,5-dimethyl-1H-imidazol-2-yl)-N-methyl-3,4′-bipyridine-5-carboxamide], the pIC50 in assay [1] (Homo sapiens) was 6.00 to 6.52; in assay [2], no less than 7.30; in assay [3], no less than 7.00.
For `CS(=O)(=O)c1cncc(-c2ccnc(-c3ncc(-c4ccccn4)[nH]3)c2)c1` [Example 118, 5-(Methylsulfonyl)-2′-(5-(pyridin-2-yl)-1H-imidazol-2-yl)-3,4′-bipyridine], in that order: 6.00 to 6.52, no less than 7.30 and no less than 7.30.
With `Cc1nc(-c2cc(-c3cncc(C4CCN(S(C)(=O)=O)C4)c3)ccn2)[nH]c1C` (racemic) [Example 240, 2′-(4,5-Dimethyl-1H-imidazol-2-yl)-5-[1-(methylsulfonyl)pyrrolidin-3-yl]-3,4′-bipyridine], the pIC50 was 5.30 to 6.00 in assay [1] (Homo sapiens), no less than 7.00 in assay [2] and no less than 6.30 in assay [3].
With `Cc1nc(-c2cc(-c3cncc(C(=O)N4CC(C#N)C4)c3)ccn2)[nH]c1C` [Example 153, 1-(2′-(4,5-Dimethyl-1H-imidazol-2-yl)-3,4′-bipyridine-5-carbonyl)azetidine-3-carbonitrile trifluoroacetate salt], the figures for the pIC50 in assay [1] (Homo sapiens), in assay [2] and in assay [3] were no less than 6.52, no less than 7.30 and no less than 7.30, respectively.
For the compound `Cc1[nH]c(-c2cc(-c3cncc(S(C)(=O)=O)c3)ccn2)nc1C(=O)NC(C)C` [Example 253, N-Isopropyl-5-methyl-2-[5-(methylsulfonyl)-3,4′-bipyridin-2′-yl]-1H-imidazole-4-carboxamide trifluoroacetate salt], the pIC50 in assay [1] (Homo sapiens) was no less than 6.52; in assay [2], no less than 7.30; in assay [3], no less than 7.30.
`Cc1nc(-c2cc(-c3cncc(N4CCOCC4)c3)ccn2)[nH]c1C` [Example 98, 4-(2′-(4,5-Dimethyl-1H-imidazol-2-yl)-3,4′-bipyridin-5-yl)morpholine trifluoroacetate salt]: the pIC50 is no less than 6.52 in assay [1] (Homo sapiens), no less than 7.00 in assay [2] and no less than 7.00 in assay [3].
Consider `c1cc(-c2cncc(N3CCOCC3)c2)cc(-c2ncc(C3CC3)[nH]2)n1` [Example 102, 4-(2′-(5-Cyclopropyl-1H-imidazol-2-yl)-3,4′-bipyridin-5-yl)morpholine trifluoroacetate salt], for which the pIC50 in assay [1] (Homo sapiens) was 6.00 to 6.52; in assay [2] it was no less than 7.00; in assay [3], no less than 7.30.
In the same order, the values of `Cc1nc(-c2cc(-c3cncc(C(=O)N4CC(O)C4)c3)ccn2)[nH]c1C` [Example 152, (2′-(4,5-Dimethyl-1H-imidazol-2-yl)-3,4′-bipyridin-5-yl)(3-hydroxyazetidin-1-yl)methanone trifluoroacetate salt] are 6.00 to 6.52, no less than 7.30 and no less than 7.30.
As to `CCS(=O)(=O)Nc1cncc(-c2ccnc(-c3ncc(-c4ccccc4)[nH]3)c2)c1` [Example 130, N-[2′-(5-Phenyl-1H-imidazol-2-yl)-3,4′-bipyridin-5-yl]ethanesulfonamide Trifluoroacetate Salt], the pIC50 in assay [1] (Homo sapiens) is 6.00 to 6.52; in assay [2] it was no less than 7.30; in assay [3], no less than 7.30.
For the compound `Cc1nc(-c2cc(-c3cncc(C(=O)N4CC[C@@H](N(C)C)C4)c3)ccn2)[nH]c1C` [Example 161, (R)-(2′-(4,5-Dimethyl-1H-imidazol-2-yl)-3,4′-bipyridin-5-yl)(3-(dimethylamino)pyrrolidin-1-yl)methanone trifluoroacetate salt], the pIC50 was no less than 6.52 in assay [1] (Homo sapiens), no less than 7.30 in assay [2] and no less than 7.00 in assay [3].
As for `Cc1[nH]c(-c2cc(-c3cncc(S(C)(=O)=O)c3)ccn2)nc1C(=O)N[C@@H]1CCOC1` [Example 256, 5-Methyl-2-[5-(methylsulfonyl)-3,4′-bipyridin-2′-yl]-N-[(3R)-tetrahydrofuran-3-yl]-1H-imidazole-4-carboxamide trifluoroacetate salt], the pIC50 in assay [1] (Homo sapiens) is 5.30 to 6.00; in assay [2] it was no less than 7.30; in assay [3], no less than 7.30.
Consider `CC(=O)N1CCN(C(=O)c2cncc(-c3ccnc(-c4nc(C)c(C)[nH]4)c3)c2)CC1` [Example 159, 1-(4-(2′-(4,5-Dimethyl-1H-imidazol-2-yl)-3,4′-bipyridine-5-carbonyl)piperazin-1-yl)ethanone trifluoroacetate salt], for which the results for the pIC50 in assay [1] (Homo sapiens), in assay [2] and in assay [3] were 5.30 to 6.00, no less than 7.30 and no less than 7.00, respectively.
For `COc1cncc(-c2ccnc(-c3nc(C)c(-c4ccccc4)[nH]3)c2)c1` [Example 82, 5-Methoxy-2′-(4-methyl-5-phenyl-1H-imidazol-2-yl)-3,4′-bipyridine trifluoroacetate salt], in that order: less than 5.30, no less than 7.30 and no less than 7.30.
As for `Cc1nc(-c2cc(-c3cncc(C(=O)N4CCC(c5ccccc5)CC4)c3)ccn2)[nH]c1C` [Example 186, 2′-(4,5-Dimethyl-1H-imidazol-2-yl)-5-[(4-phenylpiperidin-1-yl)carbonyl]-3,4′-bipyridine trifluoroacetate salt], the pIC50 in assay [1] (Homo sapiens) is no less than 6.52; in assay [2], no less than 7.30; in assay [3], no less than 7.30.
With `Cc1nc(-c2cc(-c3cncc(C(=O)N4CCC(F)(F)C4)c3)ccn2)[nH]c1C` [Example 173, 5-[(3,3-Difluoropyrrolidin-1-yl)carbonyl]-2′-(4,5-dimethyl-1H-imidazol-2-yl)-3,4′-bipyridine trifluoroacetate salt], the values for the pIC50 in assay [1] (Homo sapiens), in assay [2] and in assay [3] were no less than 6.52, no less than 7.30 and no less than 7.30, respectively.
Turning to `Cc1nc(-c2cc(-c3cncc(C(=O)N(C)c4ccccc4)c3)ccn2)[nH]c1C` [Example 194, 2′-(4,5-Dimethyl-1H-imidazol-2-yl)-N-methyl-N-phenyl-3,4′-bipyridine-5-carboxamide trifluoroacetate salt], the pIC50 was no less than 6.52 in assay [1] (Homo sapiens), no less than 7.30 in assay [2] and no less than 7.30 in assay [3].
With `CCC1CCN(C(=O)c2cncc(-c3ccnc(-c4nc(C)c(C)[nH]4)c3)c2)C1` (stereo not drawn) [Example 211, 2′-(4,5-Dimethyl-1H-imidazol-2-yl)-5-[(3-ethylpyrrolidin-1-yl)carbonyl]-3,4′-bipyridine trifluoroacetate salt], the pIC50 in assay [1] (Homo sapiens) was no less than 6.52; in assay [2] it was no less than 7.30; in assay [3] it was no less than 7.30.
